“And” between values parts separate entries of the source, which are not always exact repeats. Equal values may be shown once. Read-outs that look alike come from different tables or passages of the source.
Legend:
[1] = biological target: T1, endogenous FES^S700C in HL-60 cells (Homo sapiens, UniProt P07332, S700C); experiment: Gel-based target engagement during PMA-induced macrophage differentiation; assay type: cell-based; conditions: for Relative FES labeling (%): Figure 6b
T1 construct: endogenous in cells; host or cells: HL-60 FES^S700C clone, differentiated to macrophages or neutrophils
Protocol: Cells were pretreated with vehicle or WEL028 (100 or 1000 nM, 1 h) prior to induction of differentiation towards monocytes/macrophages with PMA (16 nM, 48 h). Medium was refreshed with growth medium containing WEL028 and PMA after 24 h to maintain full FES inhibition. […] Threshold for CD11b-positive cells was determined using isotype control antibody. […] Kinases with native cysteine at DFG-1 position are shown in bold. All data represent means ± SEM.

BRSK1 (SAD1) = biological target: T2, BRSK1 (SAD1) (Homo sapiens, UniProt Q8TDC3); experiment: SelectScreen kinase assay
T2 sequence (Q8TDC3 1-778): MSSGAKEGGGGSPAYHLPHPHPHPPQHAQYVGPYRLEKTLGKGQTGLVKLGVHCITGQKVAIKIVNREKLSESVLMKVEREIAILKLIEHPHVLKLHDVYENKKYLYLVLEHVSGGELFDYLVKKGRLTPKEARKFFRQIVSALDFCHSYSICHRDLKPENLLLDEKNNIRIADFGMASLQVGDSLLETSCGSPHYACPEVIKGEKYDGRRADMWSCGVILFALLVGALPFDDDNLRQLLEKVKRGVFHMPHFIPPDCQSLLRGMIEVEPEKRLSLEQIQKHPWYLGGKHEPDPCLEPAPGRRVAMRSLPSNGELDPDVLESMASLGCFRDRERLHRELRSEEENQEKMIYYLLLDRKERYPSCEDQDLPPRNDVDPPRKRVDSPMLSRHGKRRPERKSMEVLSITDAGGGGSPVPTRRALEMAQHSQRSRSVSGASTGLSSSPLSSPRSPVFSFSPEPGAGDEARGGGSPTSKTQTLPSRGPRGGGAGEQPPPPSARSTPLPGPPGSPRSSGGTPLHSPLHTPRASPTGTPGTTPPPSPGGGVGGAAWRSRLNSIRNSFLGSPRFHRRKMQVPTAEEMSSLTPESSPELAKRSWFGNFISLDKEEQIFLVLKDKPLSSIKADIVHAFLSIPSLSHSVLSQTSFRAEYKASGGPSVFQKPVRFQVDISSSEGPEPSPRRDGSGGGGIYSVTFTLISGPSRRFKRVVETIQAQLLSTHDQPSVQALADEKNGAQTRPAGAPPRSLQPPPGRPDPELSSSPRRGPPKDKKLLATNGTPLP
Protocol: (§1) Selectivity profiling assays were performed by the Invitrogen SelectScreen™ Services. […] The concentration of ATP was selected to be equal to the KM, unless indicated otherwise.

CAMK2D (CaMKII delta) = CAMK2D (CaMKII delta) (Homo sapiens, UniProt Q13557); experiment: SelectScreen kinase assay
Protocol: as §1

MAP2K2 (MEK2) = MAP2K2 (MEK2) (Homo sapiens, UniProt P36507); experiment: SelectScreen kinase assay
Protocol: as §1

MAP4K1 (HPK1) = MAP4K1 (HPK1) (Homo sapiens, UniProt Q92918); experiment: SelectScreen kinase assay
Protocol: as §1

MYLK2 (skMLCK) = MYLK2 (skMLCK) (Homo sapiens, UniProt Q9H1R3); experiment: SelectScreen kinase assay; conditions: for Inhibition at 1 µM (%): MYLK2 (skMLCK), ZLYTE, ATP Km app
Protocol: as §1

SRC = SRC (Homo sapiens, UniProt P12931); experiment: SelectScreen kinase assay
Protocol: as §1

ULK2 = biological target: T3, ULK2 (Homo sapiens, UniProt Q8IYT8); experiment: SelectScreen kinase assay
T3 sequence (Q8IYT8 1-1036): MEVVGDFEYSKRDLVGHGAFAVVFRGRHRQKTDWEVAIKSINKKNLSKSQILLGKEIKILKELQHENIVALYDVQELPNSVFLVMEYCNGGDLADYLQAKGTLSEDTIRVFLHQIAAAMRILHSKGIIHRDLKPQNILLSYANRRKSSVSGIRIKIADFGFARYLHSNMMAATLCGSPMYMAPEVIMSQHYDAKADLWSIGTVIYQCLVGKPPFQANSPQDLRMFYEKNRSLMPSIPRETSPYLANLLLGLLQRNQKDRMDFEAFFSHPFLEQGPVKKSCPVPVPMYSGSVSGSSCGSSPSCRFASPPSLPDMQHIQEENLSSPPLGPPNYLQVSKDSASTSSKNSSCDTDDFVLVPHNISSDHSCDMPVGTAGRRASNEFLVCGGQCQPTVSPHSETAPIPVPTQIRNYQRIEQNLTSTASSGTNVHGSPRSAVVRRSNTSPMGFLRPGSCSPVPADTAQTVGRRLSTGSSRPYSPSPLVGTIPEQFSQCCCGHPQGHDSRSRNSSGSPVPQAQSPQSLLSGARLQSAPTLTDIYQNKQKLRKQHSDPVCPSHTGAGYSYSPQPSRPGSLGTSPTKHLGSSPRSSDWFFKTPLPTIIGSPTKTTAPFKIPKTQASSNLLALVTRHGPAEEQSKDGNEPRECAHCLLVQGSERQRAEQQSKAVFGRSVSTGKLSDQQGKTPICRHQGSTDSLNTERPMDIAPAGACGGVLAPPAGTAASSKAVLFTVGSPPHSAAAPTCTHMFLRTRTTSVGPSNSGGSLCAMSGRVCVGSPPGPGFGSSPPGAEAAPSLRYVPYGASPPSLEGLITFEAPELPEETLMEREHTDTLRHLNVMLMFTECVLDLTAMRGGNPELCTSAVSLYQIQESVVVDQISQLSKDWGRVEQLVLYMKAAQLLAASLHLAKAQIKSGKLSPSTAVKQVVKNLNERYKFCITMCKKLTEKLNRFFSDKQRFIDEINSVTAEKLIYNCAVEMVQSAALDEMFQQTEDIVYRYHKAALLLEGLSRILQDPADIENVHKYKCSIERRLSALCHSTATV
Protocol: as §1

[2] = 1 h, 1 μM WEL028, 1 h preincubation

MAP2K2 (MEK2), sequence (P36507 whole entry, species assumed): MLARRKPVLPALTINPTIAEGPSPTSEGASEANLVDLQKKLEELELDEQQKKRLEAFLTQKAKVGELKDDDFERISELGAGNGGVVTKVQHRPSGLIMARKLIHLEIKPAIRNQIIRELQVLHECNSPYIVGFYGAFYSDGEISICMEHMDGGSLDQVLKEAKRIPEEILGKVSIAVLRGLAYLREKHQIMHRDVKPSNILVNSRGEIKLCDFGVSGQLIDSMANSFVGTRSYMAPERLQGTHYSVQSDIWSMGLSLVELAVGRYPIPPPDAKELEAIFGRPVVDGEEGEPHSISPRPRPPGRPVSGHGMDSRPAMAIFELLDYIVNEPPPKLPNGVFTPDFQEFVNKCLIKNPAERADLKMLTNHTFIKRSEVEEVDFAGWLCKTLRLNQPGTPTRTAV
MYLK2 (skMLCK), sequence (Q9H1R3 whole entry): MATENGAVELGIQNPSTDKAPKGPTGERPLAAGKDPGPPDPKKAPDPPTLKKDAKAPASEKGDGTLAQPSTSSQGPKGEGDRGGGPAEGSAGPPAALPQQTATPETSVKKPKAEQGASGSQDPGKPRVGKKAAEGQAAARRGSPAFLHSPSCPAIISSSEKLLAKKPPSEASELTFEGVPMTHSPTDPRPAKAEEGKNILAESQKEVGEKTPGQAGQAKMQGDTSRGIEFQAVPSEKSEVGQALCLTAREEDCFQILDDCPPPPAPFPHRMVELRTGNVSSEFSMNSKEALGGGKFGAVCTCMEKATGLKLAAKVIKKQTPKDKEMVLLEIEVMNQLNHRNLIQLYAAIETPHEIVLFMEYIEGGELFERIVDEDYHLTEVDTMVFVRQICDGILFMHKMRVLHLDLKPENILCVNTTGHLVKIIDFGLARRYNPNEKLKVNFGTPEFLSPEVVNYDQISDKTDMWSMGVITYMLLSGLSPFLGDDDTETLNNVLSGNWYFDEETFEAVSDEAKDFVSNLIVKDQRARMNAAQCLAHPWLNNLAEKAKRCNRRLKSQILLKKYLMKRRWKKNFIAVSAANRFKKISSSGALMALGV
T1 sequence (P07332 whole entry S700C): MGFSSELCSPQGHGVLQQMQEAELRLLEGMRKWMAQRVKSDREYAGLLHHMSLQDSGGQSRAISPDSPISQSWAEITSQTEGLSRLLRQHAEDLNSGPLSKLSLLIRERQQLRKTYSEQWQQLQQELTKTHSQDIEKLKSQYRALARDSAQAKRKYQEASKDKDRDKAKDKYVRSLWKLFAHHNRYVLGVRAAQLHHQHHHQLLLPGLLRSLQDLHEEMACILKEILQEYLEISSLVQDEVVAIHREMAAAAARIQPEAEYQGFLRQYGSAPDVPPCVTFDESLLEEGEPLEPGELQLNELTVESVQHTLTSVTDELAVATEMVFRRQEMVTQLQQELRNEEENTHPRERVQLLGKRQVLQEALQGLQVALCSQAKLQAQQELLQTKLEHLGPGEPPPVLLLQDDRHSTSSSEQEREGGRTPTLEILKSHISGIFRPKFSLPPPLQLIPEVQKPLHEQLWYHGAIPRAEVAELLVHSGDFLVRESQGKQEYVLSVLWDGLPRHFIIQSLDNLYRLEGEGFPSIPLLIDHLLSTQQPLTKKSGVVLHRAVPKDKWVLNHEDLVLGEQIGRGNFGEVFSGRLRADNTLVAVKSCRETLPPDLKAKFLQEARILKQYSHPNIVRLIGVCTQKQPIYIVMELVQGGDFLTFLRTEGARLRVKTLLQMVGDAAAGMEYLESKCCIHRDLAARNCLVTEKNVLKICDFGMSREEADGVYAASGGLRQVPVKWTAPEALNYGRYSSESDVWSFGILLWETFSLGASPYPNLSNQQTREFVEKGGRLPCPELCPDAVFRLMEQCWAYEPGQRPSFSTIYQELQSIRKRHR
SRC, sequence (P12931 whole entry): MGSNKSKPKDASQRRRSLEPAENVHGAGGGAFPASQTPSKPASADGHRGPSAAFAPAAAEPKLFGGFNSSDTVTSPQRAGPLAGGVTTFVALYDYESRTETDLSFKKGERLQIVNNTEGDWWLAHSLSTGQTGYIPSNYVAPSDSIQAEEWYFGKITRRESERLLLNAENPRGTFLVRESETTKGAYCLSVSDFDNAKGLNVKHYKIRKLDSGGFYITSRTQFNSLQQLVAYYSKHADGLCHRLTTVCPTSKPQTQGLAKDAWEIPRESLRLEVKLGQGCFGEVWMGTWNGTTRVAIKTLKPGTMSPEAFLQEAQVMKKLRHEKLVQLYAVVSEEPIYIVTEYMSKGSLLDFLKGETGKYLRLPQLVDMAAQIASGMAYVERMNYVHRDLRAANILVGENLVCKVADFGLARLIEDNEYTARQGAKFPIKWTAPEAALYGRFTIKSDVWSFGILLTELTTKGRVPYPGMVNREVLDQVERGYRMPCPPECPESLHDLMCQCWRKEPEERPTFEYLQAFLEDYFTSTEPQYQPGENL
MAP4K1 (HPK1), sequence (Q92918 whole entry): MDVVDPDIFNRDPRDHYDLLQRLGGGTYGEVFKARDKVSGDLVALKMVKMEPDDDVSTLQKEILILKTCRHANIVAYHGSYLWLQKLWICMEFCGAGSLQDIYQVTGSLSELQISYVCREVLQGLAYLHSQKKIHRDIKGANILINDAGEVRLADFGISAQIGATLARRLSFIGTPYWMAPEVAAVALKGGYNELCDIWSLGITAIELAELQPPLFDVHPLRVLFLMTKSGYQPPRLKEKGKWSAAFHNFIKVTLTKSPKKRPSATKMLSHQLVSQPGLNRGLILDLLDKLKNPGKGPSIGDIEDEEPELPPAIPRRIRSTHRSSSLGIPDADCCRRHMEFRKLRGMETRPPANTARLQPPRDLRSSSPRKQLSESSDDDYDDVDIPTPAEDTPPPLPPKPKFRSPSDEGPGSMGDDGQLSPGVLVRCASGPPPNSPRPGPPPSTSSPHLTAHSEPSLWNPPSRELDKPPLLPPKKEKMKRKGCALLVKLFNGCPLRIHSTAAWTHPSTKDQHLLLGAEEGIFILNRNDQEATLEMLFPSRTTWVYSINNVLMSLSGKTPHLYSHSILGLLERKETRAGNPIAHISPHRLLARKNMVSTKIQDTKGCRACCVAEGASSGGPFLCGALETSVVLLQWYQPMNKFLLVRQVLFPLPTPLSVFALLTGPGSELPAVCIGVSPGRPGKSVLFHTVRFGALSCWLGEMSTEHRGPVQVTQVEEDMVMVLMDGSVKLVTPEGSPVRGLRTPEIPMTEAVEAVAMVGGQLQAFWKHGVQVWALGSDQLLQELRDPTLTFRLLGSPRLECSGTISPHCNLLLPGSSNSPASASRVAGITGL
CAMK2D (CaMKII delta), sequence (Q13557 whole entry): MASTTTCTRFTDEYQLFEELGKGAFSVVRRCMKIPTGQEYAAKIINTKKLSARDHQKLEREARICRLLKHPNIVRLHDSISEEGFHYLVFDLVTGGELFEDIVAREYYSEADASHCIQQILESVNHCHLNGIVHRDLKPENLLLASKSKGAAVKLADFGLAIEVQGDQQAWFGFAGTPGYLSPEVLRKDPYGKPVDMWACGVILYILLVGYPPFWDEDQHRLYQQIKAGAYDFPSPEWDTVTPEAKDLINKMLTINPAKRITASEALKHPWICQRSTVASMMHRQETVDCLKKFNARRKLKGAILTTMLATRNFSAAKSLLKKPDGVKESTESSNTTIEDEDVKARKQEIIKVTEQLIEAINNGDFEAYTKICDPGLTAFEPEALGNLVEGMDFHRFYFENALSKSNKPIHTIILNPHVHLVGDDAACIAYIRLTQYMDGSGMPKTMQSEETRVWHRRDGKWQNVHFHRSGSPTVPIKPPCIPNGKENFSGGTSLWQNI

C#CCOc1ccc(Nc2ncc(Cl)c(Nc3ccccc3NC(=O)C=C)n2)c(OC)c1 [Compound 6]
Target engagement of engineered FES ([1]; 100 nM WEL028 during PMA-induced differentiation): full target engagement
Relative FES labeling (%) ([1]; WEL028 100 nM): 6.297% and 1.811% and 0.4549%
Relative FES labeling (%) ([1]; WEL028 1 µM): -1.423% and -3.177% and -0.4317%
inhibition at 1 µM (BRSK1 (SAD1); [2]): 2%
Inhibition at 1 µM (%) (BRSK1 (SAD1); BRSK1 (SAD1), 1 µM, ZLYTE, ATP Km app, listed as WEL028, 1 µM): 1%
inhibition at 1 µM (BRSK1 (SAD1); read-out: Inhibition at 1 µM (%), BRSK1 (SAD1), 1 µM, ZLYTE, ATP Km app): 2%
inhibition at 1 µM (CAMK2D (CaMKII delta); [2]): 8%
Inhibition at 1 µM (%) (CAMK2D (CaMKII delta); CAMK2D (CaMKII delta), 1 µM, ZLYTE, ATP Km app): 15%
IC50 (MAP2K2 (MEK2)): 251 nM
inhibition at 1 µM (MAP2K2 (MEK2); [2]): 106%
inhibition at 10 µM (MAP2K2 (MEK2); 1 h, log[inhibitor] (M) -5.00, ZLYTE, ATP 100): 104%
inhibition at 3.311 µM (MAP2K2 (MEK2); 1 h, log[inhibitor] (M) -5.48, ZLYTE, ATP 100): 103%
inhibition at 1.122 µM (MAP2K2 (MEK2); 1 h, log[inhibitor] (M) -5.95, ZLYTE, ATP 100): 99%
inhibition at 0.3715 µM (MAP2K2 (MEK2); 1 h, log[inhibitor] (M) -6.43, ZLYTE, ATP 100): 68%
inhibition at 0.123 µM (MAP2K2 (MEK2); 1 h, log[inhibitor] (M) -6.91, ZLYTE, ATP 100): 38%
inhibition at 0.04074 µM (MAP2K2 (MEK2); 1 h, log[inhibitor] (M) -7.39, ZLYTE, ATP 100): 33%
inhibition at 0.0138 µM (MAP2K2 (MEK2); 1 h, log[inhibitor] (M) -7.86, ZLYTE, ATP 100): 27%
inhibition at 0.001514 µM (MAP2K2 (MEK2); 1 h, log[inhibitor] (M) -8.82, ZLYTE, ATP 100): 16%
inhibition at 0.0004898 µM (MAP2K2 (MEK2); 1 h, log[inhibitor] (M) -9.31, ZLYTE, ATP 100): 10%
inhibition at 0.004571 µM (MAP2K2 (MEK2); 1 h, log[inhibitor] (M) -[…], ZLYTE, ATP 100): 20%
Apparent fold selectivity (MAP2K2 (MEK2); IC50 on that kinase divided by IC50 on FES^S700C): 54 fold
inhibition at 1 µM (MAP2K2 (MEK2); read-out: Inhibition at 1 µM (%), MAP2K2 (MEK2), 1 µM, ZLYTE, ATP 100): 109%
inhibition at 1 µM (MAP4K1 (HPK1); [2]): 17%
inhibition at 1 µM (MAP4K1 (HPK1); read-out: Inhibition at 1 µM (%), MAP4K1 (HPK1), 1 µM, LanthaScreen Binding): 16%
inhibition at 1 µM (MYLK2 (skMLCK); [2]): -3%
Inhibition at 1 µM (%) (MYLK2 (skMLCK)): 2%
Inhibition at 1 µM (%) (MYLK2 (skMLCK); listed as WEL028, 1 µM): -8%
Inhibition at 1 µM (%) (SRC; 1 µM, ZLYTE, ATP Km app, listed as WEL028, 1 µM): 8%
inhibition at 1 µM (SRC; [2]): 9%
inhibition at 1 µM (SRC; read-out: Inhibition at 1 µM (%), 1 µM, ZLYTE, ATP Km app): 10%
Inhibition at 1 µM (%) (ULK2; 1 µM, LanthaScreen Binding, listed as WEL028, 1 µM): 4%
inhibition at 1 µM (ULK2; [2]): 3%
inhibition at 1 µM (ULK2; read-out: Inhibition at 1 µM (%), 1 µM, LanthaScreen Binding): 2%
